Data taken from article PMC7672604, “Design, Synthesis, Molecular Docking, Antiapoptotic and Caspase-3 Inhibition of New 1,2,3-Triazole/Bis-2(1H)-Quinolinone Hybrids” (Molecules, 2020).
Several values for one entry are separate records, joined by “and”; a condition that tells them apart may be missing. Equal entries are not always repeated. Blank lines part the entries; values can stand above or below the compound they belong to.

How the values were obtained:
testis of I/R rats [1] = experiment: Testicular MDA in testis of I/R rats; format: in vivo; conditions: i.p. 1 h before ischemia, dose equivalent to 30 mg NAC, mean ± S.E.M, n=6
Procedure: (§1) This section describes the methods used in the investigation of the antiapoptotic effect of the novel compounds 6a–g then supported by further histological and molecular docking studies. The antiapoptotic effect of 6a–g was evaluated through evaluation of decreasing tissue damage induced by I/R in the testis of rats in a dose equivalent to 30 mg N-acetylcysteine (NAC) as an antiapoptotic reference. The rats were subdivided into sham, I/R, NAC and treated with tested compounds groups, each group comprises of 6 rats (weighing 140–150 g). The targeted compounds 6a–g were administrated intra-peritoneal (i.p.) an hour before ischemia, which lasted for (0.5 h) then reperfusion (1 h) followed by cutting the organ (Figure 5). Different biomarkers concentrations were measured in serum to detect testis injury due to ischemia/reperfusion (I/R).
(§2) During the long testicular torsion, oxidation damage affects the testis by the production of the reactive oxygen species (ROS). Excessive generation of the ROS interacts with lipids, proteins, and nucleic acids, which has an adverse effect on cell function and damage. The testis has high cell metabolism such that excessive ROS production weakens antioxidant capacity. Malondialdehyde (MDA) is the end product of lipid peroxidation and increased MDA level has an adverse effect on sperm fertility. Furthermore, total antioxidant capacity (TAC) is the measure of the number of free radicals scavenged by a test solution, being used to evaluate the antioxidant capacity of biological samples [55]. The data collected in Table S3 (Supplementary Materials) have identified that there was a significant increase in testicular MDA with a significant decrease in testicular TAC in the I/R group as well as compounds 6d and 6f when compared to sham control and NAC groups. These findings indicate that both 6d and 6f are the worst antiapoptotic compounds compound amongst all the synthesized compounds.
TAC was assessed by the colorimetric technique using commercial kits (El-Minia, Egypt) (See Supplementary Materials). Testicular MDA, an index of lipid peroxidation, was determined by using 1,1,3,3-tetramethoxypropane as standard (See Supplementary Materials).

testis of I/R rats [2] = experiment: Testicular TAC in testis of I/R rats; format: in vivo; conditions: i.p. 1 h before ischemia, dose equivalent to 30 mg NAC, mean ± S.E.M, n=6
Procedure: as §1, §2
TAC was assessed by the colorimetric technique using commercial kits (El-Minia, Egypt) (See Supplementary Materials). Testicular MDA, an index of lipid peroxidation, was determined by using 1,1,3,3-tetramethoxypropane as standard (See Supplementary Materials). […]
1.3.Determination of Total Antioxidant Capacity (Testicular tissue)
Free radicals or reactive oxygen species (ROS) are produced during biochemical redox reactions as part
of normal physiological cell metabolism (protection from infectious organisms) and as a response to
environmental factors such as UV light, cigarette smoke, environmental pollutants, and g-radiation. Once
formed, ROS attack cellular components causing damage to lipids, proteins, and DNA which can initiate
Antioxidants in the sample reduce dark blue-green colored ABTS radical to colorless reduced ABTS
form. The change of absorbance at 660 nm is related with total antioxidant level of the sample. The assay
is calibrated with a stable antioxidant standard solution which is traditionally named as Trolox
Equivalent that is a vitamin E analog.
The determination of the antioxidative capacity is performed by the reaction of antioxidants in the
sample with a defined amount of exogenously provide hydrogen peroxide (H2O2) The antioxidants in the
sample eliminate a certain amount of the provided hydrogen peroxide. The residual H2O2 is determined
(1 picture or pasted object on this page, not shown here)
colorimetrically by an enzymatic reaction which involves the conversion of 3,5,dichloro–2–hydroxy
benzensulphonate to a colored product.
* Dilute R11000 times immediately before use (10 μl R1 + 10 ml d. Water mix Discard after use.
*Working Reagent: mix equal volumes of R2 and R3 immediately before use.
*Dilute sample if necessary
Total Antioxidant concentration […]

testis of I/R rats [3] = experiment: Testicular testosterone in testis of I/R rats (ELISA); format: in vivo; design: unit not given here; conditions: i.p. 1 h before ischemia, dose equivalent to 30 mg NAC, mean ± S.E.M, n=6
Procedure: as §1
(§3) It was reported that excessive apoptosis in the testis could damage the Leydig cells and apparent decline in serum testosterone levels. Furthermore, excessive apoptosis of Leydig cells results in decreased testosterone. The assays of the apoptotic biomarkers (testicular testosterone and TNFα) were done in comparison with the sham and NAC treated group and the results were outlined in Table S4 (Supplementary Materials).
(§4) TNF-α was measured by ELISA kit (Elabscience, Houston, TX, USA). Caspase-3 was measured by ELISA kit Cusabio, Houston, TX, USA (See Supplementary Materials). Testosterone concentration in testicular samples was determined by the ELISA kit (“DRG”, Marburg, Germany) (See Supplementary Materials).
1.2.Determination of serum testosterone using ELISA kit
This ELISA kit uses the Competitive-ELISA principle. The micro ELISA plate provided in this kit has been pre-coated with T. During the reaction, T in the sample or standard competes with a fixed amount of T on the solid phase supporter for sites on the Biotinylated Detection Ab specific to T. Excess conjugate and unbound sample or standard are washed from the plate, and Avidin conjugated to Horseradish Peroxidase (HRP) are added to each microplate well and incubated. Then a TMB substrate solution is added to each well. The enzyme-substrate reaction is terminated by the addition of stop solution and the color change is measured spectrophotometrically at a wavelength of 450 nm ± 2 nm. The concentration of T in the samples is then determined by comparing the OD of the samples to the standard […]
Serum: Allow samples to clot for 2 hours at room temperature or overnight at 4℃ before centrifugation for 20 min at 1000×g at 2-8℃. Collect the supernatant to carry out the assay. Blood collection tubes should be disposable and be non-endotoxin. […]
1. Bring all reagents to room temperature (18~25℃) before use. Follow the Microplate reader manual for set-up and preheat it for 15 min before OD measurement.
2. Wash Buffer: Dilute 30 mL of Concentrated Wash Buffer with 720 mL of deionized or distilled water to prepare 750 mL of Wash Buffer. Note: if crystals have formed in the concentrate, warm it in a 40℃ water-bath and mix it gently until the crystals have completely dissolved.
3. Standard working solution: Centrifuge the standard at 10,000×g for 1min. Add 1.0mL of Reference Standard &Sample Diluent, let it stand for 10min and invert it gently several times. After it dissolves fully, mix it thoroughly with a pipette. This reconstitution produces a working solution of 20 ng/mL. Then make serial dilutions as needed. The recommended dilution gradient is as […]
Dilution method: Take 7 EP tubes, add 500uL of Reference Standard & Sample Diluent to each tube. Pipette 500uL of the 20 ng/mL working solution to the first tube and mix up to produce a 10 ng/mL working solution. Pipette 500uL of the solution from the former tube to the latter one according to this step. The illustration below is for reference. Note: the last tube is regarded as a blank. Don’t pipette solution into it from the former tube.

testis of I/R rats [4] = experiment: TNFα in testis of I/R rats (ELISA); format: in vivo; conditions: i.p. 1 h before ischemia, dose equivalent to 30 mg NAC, mean ± S.E.M, n=6
Procedure: as §1, §3, §4

caspase-3 = experiment: Caspase-3 level in serum of testicular I/R rats (ELISA); format: in vivo; conditions: mean ± S.E.M, n=6
Procedure: as §1
Caspases can delay apoptosis, implicating a potential role in drug screening efforts. Therefore, we studied the mechanism of the caspase-3 inhibition activity. Caspase-3 was assayed in the serum of rats treated with 6a–g in comparison with sham and the NAC treated group, as shown in Table S5 (Supplementary Materials).
as §4

SMILES: Cc1ccc2[nH]c(=O)cc(OCc3cn(-c4cc(=O)[nH]c5ccccc45)nn3)c2c1 [6e, 6-Methyl-4-((1-(2-oxo-1,2-dihydroquinolin-4-yl)-1H-1,2,3-triazol-4-yl)methoxy)quinolin-2(1H)-one]
Testicular MDA (testis of I/R rats [1]): 85.00±6.46 nmol/g tissue | Testicular TAC (testis of I/R rats [2]): 3.34±0.25 mmol/g tissue | Testicular testosterone (testis of I/R rats [3]): 3.62±0.17 | TNF-α (testis of I/R rats [4]): 188.90 ± 6.82 pg/mL | Caspase-3 level (caspase-3): 7.86 ± 0.28 ng/mL | melting point: 272 to 274 °C

SMILES: CC(=O)N[C@@H](CS)C(=O)O [NAC, N-acetylcysteine, reference compound]
Testicular MDA (testis of I/R rats [1]): 67.58 nmol/g tissue and 67.58±3.76 nmol/g tissue | Testicular TAC (testis of I/R rats [2]): 4.45 mmol/g tissue and 4.45±0.40 mmol/g tissue | TNF-α (testis of I/R rats [4]): 93.39 ± 4.59 pg/mL | Caspase-3 level (caspase-3): 2.54 ± 0.22 ng/mL

SMILES: Cn1c(=O)cc(-n2cc(COc3cc(=O)[nH]c4ccccc34)nn2)c2ccccc21 [6d, 1-Methyl-4-(4-(((2-oxo-1,2-dihydroquinolin-4-yl)oxy)methyl)-1H-1,2,3-triazol-1-yl)quinolin-2(1H)-one]
Testicular MDA (testis of I/R rats [1]): 117.50 ± 3.71 nmol/g tissue | Testicular TAC (testis of I/R rats [2]): 1.89±0.29 mmol/g tissue | Testicular testosterone (testis of I/R rats [3]): 2.67±0.25 | TNF-α (testis of I/R rats [4]): 234.50 ± 6.15 pg/mL | Caspase-3 level (caspase-3): 15.28 ± 1.51 ng/mL | melting point: 285 to 287 °C

SMILES: Cc1ccc2[nH]c(=O)cc(OCc3cn(-c4cc(=O)[nH]c5ccc(C)cc45)nn3)c2c1 [6f, 6-Methyl-4-((1-(6-methyl-2-oxo-1,2-dihydroquinolin-4-yl)-1H-1,2,3-triazol-4-yl)meth-oxy)quinolin-2(1H)-one]
Testicular MDA (testis of I/R rats [1]): 117.00±3.46 nmol/g tissue | Testicular TAC (testis of I/R rats [2]): 1.73±0.25 mmol/g tissue | Testicular testosterone (testis of I/R rats [3]): 1.83±0.14 | TNF-α (testis of I/R rats [4]): 237.90 ± 4.52 pg/mL | Caspase-3 level (caspase-3): 16.34 ± 1.49 ng/mL | melting point: 270 to 272 °C

Continued, in another order:

melting point: 295 to 297 °C
SMILES: COc1ccc2[nH]c(=O)cc(-n3cc(COc4cc(=O)[nH]c5ccccc45)nn3)c2c1 [6c, 6-Methoxy-4-(4-(((2-oxo-1,2-dihydroquinolin-4-yl)oxy)methyl)-1H-1,2,3-triazol-1-yl)-quinolin-2(1H)-one]
Testicular MDA (testis of I/R rats [1]): 64.93±4.50 nmol/g tissue | Testicular TAC (testis of I/R rats [2]): 4.78±0.39 mmol/g tissue | Testicular testosterone (testis of I/R rats [3]): 5.00±0.26 | TNF-α (testis of I/R rats [4]): 106.70 ± 4.75 pg/mL | Caspase-3 level (caspase-3): 2.39 ± 0.23 ng/mL

melting point: 300 to 302 °C
SMILES: COc1ccc2[nH]c(=O)cc(OCc3cn(-c4cc(=O)[nH]c5ccccc45)nn3)c2c1 [6g, 6-Methoxy-4-((1-(2-oxo-1,2-dihydroquinolin-4-yl)-1H-1,2,3-triazol-4-yl)methoxy)quinolin-2-(1H)-one]
Testicular MDA (testis of I/R rats [1]): 89.59±5.58 nmol/g tissue | Testicular TAC (testis of I/R rats [2]): 3.34±0.21 mmol/g tissue | Testicular testosterone (testis of I/R rats [3]): 3.45±0.22 | TNF-α (testis of I/R rats [4]): 192.00 ± 6.31 pg/mL | Caspase-3 level (caspase-3): 6.99 ± 0.24 ng/mL
